Data on twelve compounds can be found in patent US20260200939A1, “MOLECULAR GLUE DEGRADER COMPOUNDS AND USES THEREOF” (Novartis AG, priority 2022, published 2026).

One test concerns the target T1, CDK4 (Homo sapiens, UniProt P11802).
T1 construct: endogenous in cells; host or cells: C33A
The experiment in a line: CDK4 Degradation Assay, Western blotting. In kind it is cell-based. The note with it: for CDK4 degradation, in words: C33A cells, immunoblot. On the procedure:
(§1) C33A cells were purchased from American Type Culture Collection (ATCC) and were cultured in Dulbecco's Modified Eagle Medium (DMEM) containing 10% (v/v) fetal bovine serum (FBS) and maintained at 37° C. with 5% CO2. 22RV1 cells were purchased from the ATCC and were cultured in RPMI-1640 Medium containing 10% (v/v) FBS and maintained at 37° C. with 5% CO2. HEK293T cells were obtained from the UC Berkeley Cell Culture Facility and were cultured in DMEM containing 10% (v/v) FBS and maintained at 37° C. with 5% CO2. K562 cells were obtained from the UC Berkeley Cell Culture Facility and were cultured in Iscove's Modified Dulbecco's Medium (IMDM) containing 10% (v/v) FBS and maintained at 37° C. with 5% CO2. MV-4-11 cells were obtained from the ATCC and were cultured in IMDM containing 10% (v/v) FBS and maintained at 37° C. with 5% CO2. A549 cells were obtained from the ATCC and were cultured in F-12K Medium containing 10% (v/v) FBS and maintained at 37° C. with 5% CO2. Mino cells were obtained from the ATCC and were cultured in RPMI-1640 Medium containing 10% (v/v) FBS and maintained at 37° C. with 5% CO2. LNCaP cells were obtained from the ATCC and were cultured in RPMI-1640 Medium containing 10% (v/v) FBS and maintained at 37° C. with 5% CO2. Unless otherwise specified, all cell culture materials were purchased from Gibco. It is not known whether HEK293T cells are from male or female origin.
(§2) Cells were washed twice with cold PBS, scraped, and pelleted by centrifugation (700 g, 5 min, 4° C.). Pellets were resuspended in PBS, sonicated, clarified by centrifugation (12,000 g, 10 min, 4° C.), and lysate was transferred to new low-adhesion microcentrifuge tubes. Proteome concentrations were determined using BCA assay and lysate was diluted to appropriate working concentrations.
(§3) Proteins were resolved by SDS/PAGE and transferred to nitrocellulose membranes using the Trans-Blot Turbo transfer system (Bio-Rad). Membranes were blocked with 5% BSA in Tris-buffered saline containing Tween 20 (TBS-T) solution for 30 min at RT, washed in TBS-T, and probed with primary antibody diluted in recommended diluent per manufacturer overnight at 4° C. After 3 washes with TBS-T, the membranes were incubated in the dark with IR680- or IR800-conjugated secondary antibodies at 1:10,000 dilution in 5% BSA in TBS-T at RT for 1 h. After 3 additional washes with TBST, blots were visualized using an Odyssey Li-Cor fluorescent scanner. The membranes were stripped using ReBlot Plus Strong Antibody Stripping Solution (EMD Millipore) when additional primary antibody incubations were performed. Antibodies used in this study were CDK4 (Abcam ab108357), Vinculin (Abcam ab129002), GAPDH (Cell Signaling Technology 14C10), RNF126 (Santa Cruz Biotechnology sc-376005), BRD4 (Abcam ab128874), Beta Actin (Cell Signaling Technology 13E5), PDE5 (Abcam ab259945), AR-V7 (Abcam ab273500), c-Abl (Santa Cruz Biotechnology sc-23), SMARCA2 (Abcam ab240648), LRRK2 (Abcam ab133474), BTK (Cell Signaling Technology D3H5), Androgen Receptor (Abcam ab133273).
For orientation: A western blot detects proteins with antibodies after separation by electrophoresis.

The target in another test is T2, pure RNF126 protein (Homo sapiens, UniProt Q9BV68).
T2 construct: FLAG (C); host or cells: HEK293T
Description: Mass spectrometry analysis of compound-labeled RNF126 tryptic digests. In kind it is binding.

The target of a further test is T3, SMARCA2 (Homo sapiens, UniProt P51531).
T3 construct: endogenous in cells; host or cells: MV-4-11
Description: SMARCA2 Degradation assay, Western blotting. In kind it is cell-based. On the procedure: as §1, §2
Proteins were resolved by SDS/PAGE and transferred to nitrocellulose membranes using the Trans-Blot Turbo transfer system (Bio-Rad). […]

The next test addresses T4, Recombinant RNF126 (Homo sapiens, UniProt Q9BV68).
T4 construct: FLAG (C); host or cells: HEK293T
Description: RNF126 Binding Assay, gel-based ABPP. On the procedure:
RNF126 mammalian expression plasmid with a C-terminal FLAG tag was purchased from Origene (Origene Technologies Inc., RC204986). The plasmid was transformed into NEB 5-alpha Competent E. coli (DH5) cells (NEB product no. C2987H). The following day, a single transformed colony was used to inoculate 50 ml of nutrient rich LB medium containing kanamycin (50 μg/ml) and was incubated at 37° C. overnight, with agitation (250 rpm). A Miniprep (Qiagen) kit was used to isolate the plasmid before sequence verification with appropriate primers.
HEK293T cells were grown to 30-50% confluency in DMEM supplemented with 10% FBS (Corning) and maintained at 37° C. with 5% CO2. Immediately before transfection, media was replaced with DMEM containing 5% FBS. Each plate was transfected with 24 μg of overexpression plasmid with 24 μL Lipofectamine 3000 (Invitrogen) in Opti-MEM. After 48 h cells were collected in PBS, lysed by sonication, and batch bound with anti-DYKDDDDK resin (GenScript, L00432) for 2 hours. Lysate and resin were washed with PBS and eluted with 133.33 μg/ml 3×FLAG peptide (ApexBio, A6001) in PBS. Five elutions were performed for 15 minutes each. Elutions were concentrated and the protein was stored in PBS. Concentration and purity was determined using the BCA assay and western blotting.
Recombinant RNF126 ([…]) was pre-treated with either DMSO vehicle or covalent ligand at 37° C. for 30 min in 25 μL of PBS, and subsequently treated with of IA-Rhodamine (concentrations designated in figure legends) (Setareh Biotech) at room temperature for 1 h in the dark. The reaction was stopped by addition of 4×reducing Laemmli SDS sample loading buffer (Alfa Aesar). After boiling at 95° C. for 5 min, the samples were separated on precast 4-20% Criterion TGX gels (Bio-Rad). Probe-labeled proteins were analyzed by in-gel fluorescence using a ChemiDoc MP (Bio-Rad).

The target in a further test is T5, AR-V7 (Homo sapiens, UniProt P10275).
T5 construct: endogenous in cells; host or cells: 22RV1 and/or LNCaP
T5 sequence (P10275 1-644 isoform P10275-3): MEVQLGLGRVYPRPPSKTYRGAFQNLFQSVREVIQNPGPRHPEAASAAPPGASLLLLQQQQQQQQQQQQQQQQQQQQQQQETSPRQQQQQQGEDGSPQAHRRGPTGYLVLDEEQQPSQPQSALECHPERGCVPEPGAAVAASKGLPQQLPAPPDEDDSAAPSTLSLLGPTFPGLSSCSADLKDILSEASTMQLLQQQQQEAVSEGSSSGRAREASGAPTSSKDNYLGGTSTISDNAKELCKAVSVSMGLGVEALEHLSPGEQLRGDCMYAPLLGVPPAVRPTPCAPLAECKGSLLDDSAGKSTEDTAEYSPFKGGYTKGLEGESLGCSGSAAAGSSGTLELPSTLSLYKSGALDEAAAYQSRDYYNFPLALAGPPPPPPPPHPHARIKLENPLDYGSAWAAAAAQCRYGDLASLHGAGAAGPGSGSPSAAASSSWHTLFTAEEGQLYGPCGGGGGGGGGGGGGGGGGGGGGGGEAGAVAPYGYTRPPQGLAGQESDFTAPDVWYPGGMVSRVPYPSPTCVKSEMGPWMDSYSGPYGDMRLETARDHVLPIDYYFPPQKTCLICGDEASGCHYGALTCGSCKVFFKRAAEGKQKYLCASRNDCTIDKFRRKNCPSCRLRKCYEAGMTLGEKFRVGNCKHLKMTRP
Description: AR-V7 degradation in prostate cancer cells, Western blotting. It counts as cell-based. The note with it: LNCaP and 22RV1 prostate cancer cells. The procedure: as §1, with “LNCaP cells were obtained from the ATCC and were cultured in RPMI-1640 Medium containing 10% (v/v) FBS and maintained at 37° C. with 5% CO2. Unless otherwise specified, all cell culture materials were purchased from Gibco. It is not known whether HEK293T cells are from male or female origin.” left out
Cells were washed twice with cold PBS, scraped, and pelleted by centrifugation (700 g, 5 min, 4° C.). […] Proteome concentrations were determined using BCA assay and lysate was diluted to appropriate working concentrations. […]

The subject of the next test is Androgen Receptor. The experiment in a line: Androgen Receptor Degradation assay, Western blotting. It counts as cell-based. The note with it: for degradation of AR, in words: LNCaP and 22RV1 prostate cancer cells. On the procedure: as §1, §2, §3

T4 sequence (Q9BV68 whole entry): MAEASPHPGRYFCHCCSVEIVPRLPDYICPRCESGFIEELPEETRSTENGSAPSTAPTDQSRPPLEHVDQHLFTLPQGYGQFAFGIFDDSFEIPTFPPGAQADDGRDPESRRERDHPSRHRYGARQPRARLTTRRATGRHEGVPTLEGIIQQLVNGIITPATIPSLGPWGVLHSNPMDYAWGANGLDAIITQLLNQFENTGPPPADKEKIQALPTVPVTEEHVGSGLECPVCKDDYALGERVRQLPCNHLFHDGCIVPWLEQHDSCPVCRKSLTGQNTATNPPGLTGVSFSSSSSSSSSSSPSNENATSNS
T3 sequence (P51531 whole entry): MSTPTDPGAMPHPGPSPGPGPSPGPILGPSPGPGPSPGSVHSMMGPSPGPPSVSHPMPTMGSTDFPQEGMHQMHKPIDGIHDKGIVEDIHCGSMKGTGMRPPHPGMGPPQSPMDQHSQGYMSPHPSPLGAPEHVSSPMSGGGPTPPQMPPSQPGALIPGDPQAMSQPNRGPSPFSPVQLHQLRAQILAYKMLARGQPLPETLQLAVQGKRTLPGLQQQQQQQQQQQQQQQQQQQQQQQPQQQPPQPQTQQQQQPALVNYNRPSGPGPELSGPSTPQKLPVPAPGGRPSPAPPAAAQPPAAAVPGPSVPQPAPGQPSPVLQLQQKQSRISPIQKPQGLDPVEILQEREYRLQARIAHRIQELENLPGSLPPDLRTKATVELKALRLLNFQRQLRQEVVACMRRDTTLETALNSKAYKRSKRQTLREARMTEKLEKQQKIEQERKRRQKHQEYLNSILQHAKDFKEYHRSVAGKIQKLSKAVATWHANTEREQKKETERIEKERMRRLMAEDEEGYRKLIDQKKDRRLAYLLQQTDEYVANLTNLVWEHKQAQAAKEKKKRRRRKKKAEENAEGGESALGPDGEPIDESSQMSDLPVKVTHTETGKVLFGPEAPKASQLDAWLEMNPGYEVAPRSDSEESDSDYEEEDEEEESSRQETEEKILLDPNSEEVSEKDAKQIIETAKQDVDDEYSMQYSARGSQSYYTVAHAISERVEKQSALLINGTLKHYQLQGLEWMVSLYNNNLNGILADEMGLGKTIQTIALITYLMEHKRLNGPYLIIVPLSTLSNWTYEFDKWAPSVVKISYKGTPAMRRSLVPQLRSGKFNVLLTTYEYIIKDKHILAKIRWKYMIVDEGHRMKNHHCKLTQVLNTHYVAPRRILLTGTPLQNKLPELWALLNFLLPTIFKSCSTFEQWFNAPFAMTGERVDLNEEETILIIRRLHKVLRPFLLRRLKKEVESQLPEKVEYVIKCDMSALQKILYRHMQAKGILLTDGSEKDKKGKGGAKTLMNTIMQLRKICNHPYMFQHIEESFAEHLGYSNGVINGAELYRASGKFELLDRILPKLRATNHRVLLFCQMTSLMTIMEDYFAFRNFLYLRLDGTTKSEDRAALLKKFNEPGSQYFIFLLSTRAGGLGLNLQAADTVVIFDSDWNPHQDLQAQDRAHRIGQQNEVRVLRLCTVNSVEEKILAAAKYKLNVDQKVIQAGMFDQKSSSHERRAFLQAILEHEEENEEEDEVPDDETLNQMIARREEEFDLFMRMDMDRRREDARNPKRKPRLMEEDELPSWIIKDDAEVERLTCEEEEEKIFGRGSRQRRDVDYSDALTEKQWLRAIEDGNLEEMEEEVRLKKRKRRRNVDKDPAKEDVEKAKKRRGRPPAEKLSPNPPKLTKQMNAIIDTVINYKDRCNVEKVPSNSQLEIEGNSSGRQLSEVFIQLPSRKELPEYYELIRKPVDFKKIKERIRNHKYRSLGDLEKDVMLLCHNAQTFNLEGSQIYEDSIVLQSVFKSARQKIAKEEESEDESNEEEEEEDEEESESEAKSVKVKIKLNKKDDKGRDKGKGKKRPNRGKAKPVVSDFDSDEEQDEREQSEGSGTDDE
T2 sequence (Q9BV68 whole entry): as the sequence (Q9BV68 whole entry) above

Turning to `COc1ccc(C(=O)/C=C/C(=O)N2CCN(c3ccc(Nc4ncc5cc(C(=O)N(C)C)n(C6CCCC6)c5n4)nc3)CC2)cc1` [Compound 113, (E)-7-cyclopentyl-2-((5-(4-(4-(4-methoxyphenyl)-4-oxobut-2-enoyl)piperazin-1-yl)pyridin-2-yl)-amino)-N,N-dimethyl-7H-pyrrolo[2,3-d]pyrimidine-6-carboxamide], the “CDK4 degradation, in words” value at CDK4 was “in a dose-responsive manner”. The “adduct on RNF126 by mass spectrometry of tryptic digests” value on pure RNF126 protein is listed as “reacts with C32 of RNF126”.
Take `COc1ccc(C(=O)/C=C/C(=O)N2CCN(c3cc(-c4ccccc4O)nnc3N)CC2)cc1` [Compound 128]: the “degradation of SMARCA2, in words” value at SMARCA2 (MV-4-11 leukemia cancer cells) is “degradation of SMARCA2 in MV-4-11 leukemia cancer cells cell in a dose-responsive manner”. The “binding to RNF126 (gel-based ABPP), in words” value (shortened to “binding to RNF126”) on Recombinant RNF126 is “potent binding”.
With `COc1ccc(C(=O)/C=C/C(=O)N2CCN(C(=O)COc3ccc(-c4csc(N5CCOCC5)n4)cc3)CC2)cc1` [Compound 132], the “degradation of AR-V7, in words” value at AR-V7 is “degradation of AR and AR-V7”. In addition, in the test on Androgen Receptor, the “degradation of AR, in words” value was “degradation of AR and AR-V7”. Further, the “binding to RNF126” value at Recombinant RNF126 was “potent binding”.
Consider `COc1ccc(C(=O)/C=C/C(=O)N2CCN(c3ccc(-c4csc(N5CCOCC5)n4)cc3)CC2)cc1` [Compound 133], for which the “degradation of AR-V7, in words” value on AR-V7 was “degradation of AR and AR-V7”. The “degradation of AR, in words” value in the test with Androgen Receptor is “degradation of AR and AR-V7”. Besides, the “binding to RNF126” value on Recombinant RNF126 was “potent binding”.
For `COc1ccc(C(=O)/C=C/C(=O)N2CCN(c3ccc(Nc4ncc5c(C)c(C(C)=O)c(=O)n(C6CCCC6)c5n4)nc3)CC2)cc1` [Compound 136], the “CDK4 degradation, in words” value at CDK4 is “capable to degrading CDK4”. Moreover, the “binding to RNF126” value at Recombinant RNF126 is “maintained binding to RNF126”.
For `COc1ccc(C(=O)/C=C/C(=O)N[C@H]2C[C@H](NC(=O)CN3CCN(c4ccc(C(=O)N[C@H]5CC[C@H](Oc6ccc(C#N)c(Cl)c6)CC5)nn4)CC3)C2)cc1` [Compound 200, N-((1r,4r)-4-(3-chloro-4-cyanophenoxy)cyclohexyl)-6-(4-(2-(((1r,3r)-3-((E)-4-(4-methoxyphenyl)-4-oxobut-2-enamido)cyclobutyl)amino)-2-oxoethyl)piperazin-1-yl)pyridazine-3-carboxamide], the DC50 – broadly, the concentration giving 50% degradation – with Androgen Receptor is > 10 µM.
Regarding `COc1ccc(C(=O)/C=C/C(=O)N[C@H]2C[C@H](NC(=O)CN3CCN(c4ccc(C(=O)N[C@H]5CC[C@H](Oc6ccc(C#N)c(Cl)c6)CC5)nn4)CC3)C2)c(F)c1` [Compound 201, N-((1r,4r)-4-(3-chloro-4-cyanophenoxy)cyclohexyl)-6-(4-(2-(((1r,3r)-3-((E)-4-(2-fluoro-4-methoxyphenyl)-4-oxobut-2-enamido)cyclobutyl)amino)-2-oxoethyl)piperazin-1-yl)pyridazine-3-carboxamide], the half-maximal degradation concentration (DC50) in the test with Androgen Receptor is > 10 µM.
On to `COc1ccc(C(=O)/C=C/C(=O)N2CCN(c3ccc(Nc4ncc5cc(C(=O)N(C)C)n(C6CCCC6)c5n4)nc3)C[C@@H]2C)cc1` [Compound 276, (S,E)-7-cyclopentyl-2-((5-(4-(4-(4-methoxyphenyl)-4-oxobut-2-enoyl)-3-methylpiperazin-1-yl)pyridin-2-yl)amino)-N,N-dimethyl-7H-pyrrolo[2,3-d]pyrimidine-6-carboxamide], for which the DC50 at CDK4 is 1 to 10 µM.
As for `COc1ccc(C(=O)/C=C/C(=O)N[C@H]2C[C@H](NC(=O)CN3CCN(c4cc(-c5ccccc5O)nnc4N)CC3)C2)c(F)c1` [Compound 282, (E)-N-((1r,3r)-3-(2-(4-(3-amino-6-(2-hydroxyphenyl)pyridazin-4-yl)piperazin-1-yl)acetamido)cyclobutyl)-4-(2-fluoro-4-methoxyphenyl)-4-oxobut-2-enamide], the DC50 at SMARCA2 was > 5 µM.
On to `COc1ccc(C(=O)/C=C/C(=O)N[C@H]2C[C@H](NC(=O)CN3CCN(c4cc(-c5ccccc5O)nnc4N)CC3)C2)cc1` [Compound 283, (E)-N-((1r,3r)-3-(2-(4-(3-amino-6-(2-hydroxyphenyl)pyridazin-4-yl)piperazin-1-yl)acetamido)cyclobutyl)-4-(4-methoxyphenyl)-4-oxobut-2-enamide], for which the DC50 on SMARCA2 is > 5 µM.
As to `CN(C)C(=O)c1cc2cnc(Nc3ccc(N4CCN(C(=O)/C=C/C(=O)c5ccc(Br)cc5)CC4)cn3)nc2n1C1CCCC1` [Compound 284, (E)-2-((5-(4-(4-(4-bromophenyl)-4-oxobut-2-enoyl)piperazin-1-yl)pyridin-2-yl)amino)-7-cyclopentyl-N,N-dimethyl-7H-pyrrolo[2,3-d]pyrimidine-6-carboxamide], at CDK4, the DC50 was > 10 µM.
`COc1ccc(C(=O)/C=C/C(=O)N[C@H]2C[C@H](NC(=O)CN3CCN(c4ccc(C(=O)N[C@H]5CC[C@H](Oc6ccc(C#N)c(Cl)c6)CC5)nn4)CC3)C2)c(Cl)c1` [Compound 286, N-((1r,4r)-4-(3-chloro-4-cyanophenoxy)cyclohexyl)-6-(4-(2-(((1r,3r)-3-((E)-4-(2-chloro-4-methoxyphenyl)-4-oxobut-2-enamido)cyclobutyl)amino)-2-oxoethyl)piperazin-1-yl)pyridazine-3-carboxamide]: the DC50 in the test with Androgen Receptor is > 10 µM.
